In patent publication US11236081B2, “Crystalline salts of corydalmine” (priority 2018, dated 2022):
Several values for one entry are separate records, joined by “and”; a condition that tells them apart may be missing. Identical values can stand only once.

How the values were obtained:
[1] = Solubility studies in water at 2 hours; assay type: physicochemical
[2] = Acid pKa of the free base; assay type: physicochemical
[3] = Pharmacokinetic study: plasma concentration and plasma PK parameters after IV/PO dosing (LC-MS/MS, WinNonlin); assay type: in vivo, Male SD Rat; details: male SD rat
Excerpt: Pharmacokinetic and Brain Penetration Study
Dose formulation processing during dosing: The dose formulations will be kept at room temperature.
Concentrations of Test Article in the plasma samples will be analyzed using a LC-MS/MS method.
WinNonlin (Phoenix™, version 6.1) or other similar software will be used for pharmacokinetic calculations. The following pharmacokinetic parameters will be calculated, whenever possible from the plasma concentration versus time data:
IV administration: T1/2, C0, AUClast, AUCinf, MRTinf, Cl, Vss, Number of Points for Regression.
PO administration: T1/2, Cmax, Tmax, MRTinf, AUCinf, AUClast, F %, Number of Points for Regression.
The pharmacokinetic data will be described using descriptive statistics such as mean, standard deviation.

[4] = IV 3 mg/kg, plasma, individual rats, listed as TLZ-16 freebase, 3 mg/kg
[5] = PO 10 mg/kg (equal to freebase), plasma, individual rats, vehicle 20% HP-β-CD in water (POA, freebase) or water (salts), listed as TLZ-16 freebase, 10 mg/kg

SMILES: COc1cc2c(cc1OC)[C@@H]1Cc3ccc(O)c(OC)c3CN1CC2 [Compound (1), l-corydalmine]
- solubility at 2 h [1]: < 1000 µg/mL
- pKa [2]: ~5.2
- concentration in plasma ([3]; IV 3 mg/kg, 0 h, individual rats): BLOQ (BLOQ = below limit of quantitation (0.2 ng/mL))
- concentration in plasma ([3]; IV 3 mg/kg, 0.083 h, individual rats, listed as TLZ-16 freebase, 3 mg/kg): 1410 ng/mL and 1610 ng/mL
- concentration in plasma ([3]; IV 3 mg/kg, 0.25 h, individual rats, listed as TLZ-16 freebase, 3 mg/kg): 960 ng/mL and 995 ng/mL
- concentration in plasma ([3]; IV 3 mg/kg, 0.5 h, individual rats, listed as TLZ-16 freebase, 3 mg/kg): 496 ng/mL and 536 ng/mL
- concentration in plasma ([3]; IV 3 mg/kg, 1 h, individual rats, listed as TLZ-16 freebase, 3 mg/kg): 174 ng/mL and 206 ng/mL
- concentration in plasma ([3]; IV 3 mg/kg, 2 h, individual rats, listed as TLZ-16 freebase, 3 mg/kg): 81.2 ng/mL and 60.6 ng/mL
- concentration in plasma ([3]; IV 3 mg/kg, 4 h, individual rats, listed as TLZ-16 freebase, 3 mg/kg): 28.6 ng/mL and 43.0 ng/mL and 20.2 ng/mL
- concentration in plasma ([3]; IV 3 mg/kg, 8 h, individual rats, listed as TLZ-16 freebase, 3 mg/kg): 5.24 ng/mL and 11.7 ng/mL and 2.20 ng/mL
- concentration in plasma ([3]; IV 3 mg/kg, 24 h, individual rats, listed as TLZ-16 freebase, 3 mg/kg): BLOQ (BLOQ = below limit of quantitation (0.2 ng/mL))
- AUCInf [3, 4]: 1074 ng·h/mL and 1030 ng·h/mL
- AUClast [3, 4]: 1038 ng·h/mL and 1027 ng·h/mL
- AUClast/D [3, 4]: 312 kg·ng·h/mL/mg and 346 kg·ng·h/mL/mg and 342 kg·ng·h/mL/mg
- AUC—% Extrap_obs [3, 4]: 1.32% and 3.37% and 0.306%
- C0 [3, 4]: 1707 ng/mL and 2045 ng/mL
- Cl_obs [3, 4]: 52.6 mL/min/kg and 46.5 mL/min/kg and 48.6 mL/min/kg
- MRTInf_obs [3, 4]: 1.52 h and 1.08 h
- T1/2 [3, 4]: 1.66 h and 2.14 h and 4.37 h
- Vss_obs [3, 4]: 3.43 L/kg and 4.26 L/kg and 3.16 L/kg
- AUClast/D, Mean ([3]; IV 3 mg/kg, plasma, mean n=3): 334 kg·ng·h/mL/mg
- AUC—% Extrap_obs, Mean ([3]; IV 3 mg/kg, plasma, mean n=3): 1.67%
- C0, Mean ([3]; IV 3 mg/kg, plasma, mean n=3): 1822 ng/mL
- Cl_obs, Mean ([3]; IV 3 mg/kg, plasma, mean n=3): 49.2 mL/min/kg
- Vss_obs, Mean ([3]; IV 3 mg/kg, plasma, mean n=3): 3.61 L/kg
- F ([3]; PO 10 mg/kg (equal to freebase) vs IV 3 mg/kg freebase, individual rats, vehicle 20% HP-β-CD in water (POA, freebase) or water (salts), listed as TLZ-16 freebase): 18.4% and 27.3% and 24.4%
- F, Mean ([3]; PO 10 mg/kg (equal to freebase) vs IV 3 mg/kg freebase, mean n=3, vehicle 20% HP-β-CD in water (POA, freebase) or water (salts)): 23.4%
- concentration in plasma ([3]; PO 10 mg/kg (equal to freebase), 0 h, individual rats, vehicle 20% HP-β-CD in water (POA, freebase) or water (salts)): BLOQ (BLOQ = below limit of quantitation (0.2 ng/mL))
- concentration in plasma ([3]; PO 10 mg/kg (equal to freebase), 0.25 h, individual rats, vehicle 20% HP-β-CD in water (POA, freebase) or water (salts), listed as TLZ-16 freebase, 10 mg/kg): 127 ng/mL and 358 ng/mL and 86.7 ng/mL
- concentration in plasma ([3]; PO 10 mg/kg (equal to freebase), 0.5 h, individual rats, vehicle 20% HP-β-CD in water (POA, freebase) or water (salts), listed as TLZ-16 freebase, 10 mg/kg): 139 ng/mL and 344 ng/mL and 109 ng/mL
- concentration in plasma ([3]; PO 10 mg/kg (equal to freebase), 1 h, individual rats, vehicle 20% HP-β-CD in water (POA, freebase) or water (salts), listed as TLZ-16 freebase, 10 mg/kg): 167 ng/mL and 98.9 ng/mL
- concentration in plasma ([3]; PO 10 mg/kg (equal to freebase), 2 h, individual rats, vehicle 20% HP-β-CD in water (POA, freebase) or water (salts), listed as TLZ-16 freebase, 10 mg/kg): 53.1 ng/mL and 71.9 ng/mL
- concentration in plasma ([3]; PO 10 mg/kg (equal to freebase), 4 h, individual rats, vehicle 20% HP-β-CD in water (POA, freebase) or water (salts), listed as TLZ-16 freebase, 10 mg/kg): 47.1 ng/mL and 40.1 ng/mL
- concentration in plasma ([3]; PO 10 mg/kg (equal to freebase), 8 h, individual rats, vehicle 20% HP-β-CD in water (POA, freebase) or water (salts), listed as TLZ-16 freebase, 10 mg/kg): 35.7 ng/mL and 45.3 ng/mL
- concentration in plasma ([3]; PO 10 mg/kg (equal to freebase), 24 h, individual rats, vehicle 20% HP-β-CD in water (POA, freebase) or water (salts), listed as TLZ-16 freebase, 10 mg/kg): BLOQ (BLOQ = below limit of quantitation (0.2 ng/mL)) and 0.278 ng/mL and 0.869 ng/mL
- AUCInf [3, 5]: 925 ng·h/mL and 829 ng·h/mL
- AUClast [3, 5]: 924 ng·h/mL and 825 ng·h/mL
- AUClast/D [3, 5]: 61.5 kg·ng·h/mL/mg and 92.4 kg·ng·h/mL/mg and 82.5 kg·ng·h/mL/mg
- AUC—% Extrap_obs [3, 5]: 58.7% and 0.111% and 0.505%
- Cmax [3, 5]: 139 ng/mL and 358 ng/mL and 109 ng/mL
- MRTInf_obs [3, 5]: 13.6 h and 4.19 h and 5.68 h
- T1/2 [3, 5]: 8.80 h and 2.57 h and 3.34 h
- Tmax [3, 5]: 0.25 h
